According to US12152060B2, “Interleukin-2 variants and methods of uses thereof” (Cugene Inc, priority 2018, dated 2024):

What was measured:
[1] = system: Treg cells, CD4+ Tconv, CD8 T and NK cells in blood; test: Dose-response pharmacodynamics study in mice following a single injection; type: in vivo, mouse
Description: Following a single subcutaneous administration of vehicle (PBS) or P-0511 (1, 0.3, 0.1, or 0.03 mg/kg) to female Balb/C mice (n=5/group), peripheral blood was collected on day-2 as baseline, and post dose on days 3, 5, and 7. On day 7, mice were sacrificed, and spleens were harvested. Blood lymphocyte phenotyping, proliferation and expansion were measured by flow cytometry at each timepoint using fresh whole blood.

Treg cells in blood = test: Pharmacodynamics study in mice following repeated administration (Q3D); type: in vivo, mouse; conditions: 0.3 mg/kg s.c. Q3D x3; compared to P-0531 and Benchmark-1
Description: Female Balb/C mice (7-week old) were acclimated in house for 5-7 days before the study. Vehicle (PBS), 0.3 mg/kg of P-0511, P-0512, P-0531, or Benchmark-1 compound were subcutaneously administered to mice (n=5/group) on days 0, 3, and 6. On days 3 and 9, three days after the first injection and multiple (3) injections, respectively, peripheral blood was collected. Based on earlier in vivo experiments, Treg cell activation, proliferation, and expansion were expected to peak on day 3, and thus three days post injection was selected for data collection and analysis. Changes in blood lymphocyte activation, proliferation, and expansion were measured by flow cytometry. P-0531 is the S125I equivalent of the wild type IL-2 fusion protein. The Benchmark-1 contains V91K mutation.

[2] = system: delayed-type hypersensitivity (DTH) mouse model; test: KLH-induced delayed-type hypersensitivity (DTH) mouse model, ear thickness; type: in vivo; conditions: for inhibition of ear inflammation (KLH-induced DTH), separate study: Q5D
Description: The ability of Treg cells induced by IL-2 variants to suppress T cell antigen-driven inflammation in vivo was assessed in a model of delayed-type hypersensitivity (DTH). Female Balb/C mice (7-week old) were acclimated in house for 7 days and randomized into groups. Subcutaneous administration of vehicle (PBS), P-0511 at either 0.1 mg/kg or 0.3 mg/kg was initiated on day-2 and was given either once every 3 days (Q3D) for three injections or once every 5 days (Q5D) for two injections. Mice were then sensitized with a subcutaneous administration of 100 μg keyhole limpet hemocyanin (KLH) in 200 μl saline on day 0. For Q3D dosing, two more subcutaneous injections of PBS or P-0511 (0.1 or 0.3 mg/kg) were administered on days 1 and 4; for Q5D dosing, one additional s.c. injection of PBS, 0.1 or 0.3 mg/kg P-0511 was administered on day 3. Mice received an intradermal challenge of KLH (5 μg in 10 μl saline) in right ear on day 5. Right ear thickness was measured using a caliper on day 5 prior KLH challenge and daily from day 6 to day 8 corresponding to 24 h, 48h, and 72 h post KLH challenge. One group of mice also received 5 mg/kg daily i.p. treatment of dexamethasone from day 5 to day 8 as a positive control.
Kinetics of the DTH response using the change in ear thickness relative to baseline values (Δ ear thickness) at various times after KLH challenge was illustrated in FIG. 23.
In a separate study, dose-dependent response of P-0511 (0.1, 0.3 and 1 mg/kg, Q5D) on suppression of KLH-induced DTH was determined and compared with Benchmark-1 (0.3 mg/kg, Q5D).

With “P-0511: Fc fusion protein of IL-2 variant L19H/S125I/Q126E; SEQ ID NO: 198” the “Treg/Tconv ratio, peak (based on cell count)” value (“Treg/Tconv ratio, peak” below) ([1]; 0.1 mg/kg single dose) was 0.06, the “Treg/Tconv ratio, peak” value ([1]; 0.3 mg/kg single dose) was 0.18 and the “Treg/Tconv ratio, peak” value ([1]; 1 mg/kg single dose) was 0.27. For the same substance, the “percentages of CD4+ Tconv, CD8 Teff or NK cells over the total lymphocytes” value ([1]; 0.03-1 mg/kg single dose) was “no statistically significant changes”, the “Treg cell counts, fold changes relative to PBS and Treg/Tconv ratio” value (Treg cells in blood) was “superior capabilities to sustain Treg pool” and the “suppression of antigen-driven inflammation (Δ ear thickness)” value ([2]; 0.1 mg/kg s.c., Q3D and Q5D) was “did not reach statistical significance”. The “inhibition of ear inflammation (KLH-induced DTH), separate study” value (from here on “inhibition of ear inflammation”) ([2]; 0.1 mg/kg) was “mild”, the “suppression of antigen-driven inflammation (Δ ear thickness)” value ([2]; 0.3 mg/kg s.c., Q3D or Q5D, all time points post KLH challenge) was “evident” and the “inhibition of ear inflammation” value ([2]; 0.3 mg/kg) was “Intermediate”. For the same substance, the “inhibition of ear inflammation” value ([2]; 1 mg/kg) was “strong resistance to KLH-induced DTH”.
